Data from the supplement of paper PMC11061612.

Experiments:
Experiment in all cases: Bliss excess, mean over the matrix (fraction); higher = more synergy
[1] = test system: 639-V (Bladder Carcinoma)
Summary of the method: (§1)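 After 24 hours at 37°C and 5% CO2 in 1536-well plates, cells in DMEM/F12 or RPMI plus 10% FBS received two-drug dose matrices for 72 hours. Viability came from CellTiter-Glo 2.0 luminescence and was scaled as inhibition, anchored at 0 by vehicle wells and at 1 by blank wells. Combination Emax is taken as the second-highest inhibition in the matrix, and Bliss excess as the observed combination effect less EA + EB − EA·EB, with EA and EB the single-agent effects.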

[2] = test system: CAPAN-1 (Pancreatic Carcinoma)
Summary of the method: as §1

[3] = test system: EN (Endometrial Carcinoma)
Summary of the method: as §1

[4] = test system: HARA (Squamous Cell Lung Carcinoma)
Summary of the method: as §1

[5] = test system: HMV-II (Melanoma)
Summary of the method: as §1

[6] = test system: HO-1-u-1 (Oral Cavity Carcinoma)
Summary of the method: as §1

[7] = test system: Hs-633T (Other Solid Carcinomas)
Summary of the method: as §1

[8] = test system: KARPAS-231 (B-Cell Non-Hodgkin's Lymphoma)
Summary of the method: as §1

[9] = test system: LB771-HNC (Head and Neck Carcinoma)
Summary of the method: as §1

[10] = test system: LoVo (Colorectal Carcinoma)
Summary of the method: as §1

[11] = test system: MDA-MB-468 (Breast Carcinoma)
Summary of the method: as §1

[12] = test system: NB14 (Neuroblastoma)
Summary of the method: as §1

[13] = test system: NCI-H69 (Small Cell Lung Carcinoma)
Summary of the method: as §1

[14] = test system: NCI-H747 (Colorectal Carcinoma)
Summary of the method: as §1

[15] = test system: OVCAR-8 (Ovarian Carcinoma)
Summary of the method: as §1

[16] = test system: PCI-30 (Head and Neck Carcinoma)
Summary of the method: as §1

[17] = test system: RT-112 (Bladder Carcinoma)
Summary of the method: as §1

[18] = test system: SUP-T1 (T-Lymphoblastic Leukemia)
Summary of the method: as §1

[19] = test system: TE-4 (Esophageal Squamous Cell Carcinoma)
Summary of the method: as §1

[20] = test system: UMC-11 (Other Solid Carcinomas)
Summary of the method: as §1

Compound: COc1cccc(OCCCN)c1-c1cc(Nc2cnc(C#N)cn2)n[nH]1 [Prexasertib] + C=CCn1c(=O)c2cnc(Nc3ccc(N4CCN(C)CC4)cc3)nc2n1-c1cccc(C(C)(C)O)n1 [AZD1775] (first compound max 1 µM, partner max 1 µM)
- Bliss excess [1]: 0.178
- Bliss excess [2]: -0.0069
- Bliss excess [3]: 0.0115
- Bliss excess [4]: 0.075
- Bliss excess [5]: 0.0779
- Bliss excess [6]: 0.0122
- Bliss excess [7]: 0.0796
- Bliss excess [8]: 0.0482
- Bliss excess [9]: 0.0424
- Bliss excess [10]: 0.0269
- Bliss excess [11]: 0.0399
- Bliss excess [12]: 0.0486
- Bliss excess [13]: 0.151
- Bliss excess [14]: 0.0623
- Bliss excess [15]: 0.0937
- Bliss excess [16]: 0.0954
- Bliss excess [17]: 0.119
- Bliss excess [18]: -0.0504
- Bliss excess [19]: 0.0905
- Bliss excess [20]: 0.0712

Compound: CC1(C)CCC(CN2CCN(c3ccc(C(=O)NS(=O)(=O)c4ccc(NCC5CCOCC5)c([N+](=O)[O-])c4)c(Oc4cnc5[nH]ccc5c4)c3)CC2)=C(c2ccc(Cl)cc2)C1 [Venetoclax] + Cc1cc2ncnn2cc1Nc1ncc2c(n1)n(C1CCOCC1)c(=O)n2C [AZD7648] (first compound max 1 µM, 7x7, partner max 10 µM)
- Bliss excess [1]: -0.0501
- Bliss excess [2]: -0.0196
- Bliss excess [3]: -0.0233
- Bliss excess [4]: -0.03
- Bliss excess [5]: -0.0407
- Bliss excess [6]: -0.0307
- Bliss excess [7]: -0.0154
- Bliss excess [8]: -0.124
- Bliss excess [9]: -0.006
- Bliss excess [10]: -0.0526
- Bliss excess [11]: -0.0299
- Bliss excess [12]: -0.0033
- Bliss excess [13]: -0.0227
- Bliss excess [14]: -0.0124
- Bliss excess [15]: -0.0014
- Bliss excess [16]: -0.0545
- Bliss excess [17]: 0.0066
- Bliss excess [18]: -0.0109
- Bliss excess [19]: -0.0106
- Bliss excess [20]: -0.0465

Compound: Cc1cc2ncnn2cc1Nc1ncc2c(n1)n(C1CCOCC1)c(=O)n2C [AZD7648] + C[C@@H]1COCCN1C2=NC(=NC(=C2)C3(CC3)[S@](=N)(=O)C)C4=C5C=CNC5=NC=C4 [AZD6738] (first compound max 10 µM, 7x7, partner max 10 µM)
- Bliss excess [1]: 0.0317
- Bliss excess [2]: 0.0322
- Bliss excess [3]: -0.0485
- Bliss excess [4]: -0.0073
- Bliss excess [5]: 0.0134
- Bliss excess [6]: -0.0014
- Bliss excess [7]: -0.0138
- Bliss excess [8]: 0.0018
- Bliss excess [9]: 0.0039
- Bliss excess [10]: -0.0058
- Bliss excess [11]: -0.0063
- Bliss excess [12]: -0.0026
- Bliss excess [13]: -0.0348
- Bliss excess [14]: 0.0005
- Bliss excess [15]: 0.0012
- Bliss excess [16]: -0.0101
- Bliss excess [17]: 0.0746
- Bliss excess [18]: 0.0052
- Bliss excess [19]: 0.054
- Bliss excess [20]: 0.0002

Compound: CN(C)CCCOc1ccc(-c2ccc3ncc4c(c3c2)n(C2CCOCC2)c(=O)n4C)cn1 [AZD0156] + C=CCn1c(=O)c2cnc(Nc3ccc(N4CCN(C)CC4)cc3)nc2n1-c1cccc(C(C)(C)O)n1 [AZD1775] (first compound max 1 µM, partner max 1 µM)
- Bliss excess [1]: -0.0232
- Bliss excess [2]: -0.0768
- Bliss excess [3]: -0.0767
- Bliss excess [4]: -0.007
- Bliss excess [5]: -0.0182
- Bliss excess [6]: 0.0563
- Bliss excess [7]: -0.007
- Bliss excess [8]: 0.0355
- Bliss excess [9]: -0.0593
- Bliss excess [10]: -0.0533
- Bliss excess [11]: -0.0449
- Bliss excess [12]: -0.0198
- Bliss excess [13]: -0.129
- Bliss excess [14]: -0.0309
- Bliss excess [15]: -0.0053
- Bliss excess [16]: -0.0356
- Bliss excess [17]: -0.0193
- Bliss excess [18]: -0.0251
- Bliss excess [19]: -0.0599
- Bliss excess [20]: -0.0358

Compound: CN(CCO)CC[C@H](CSc1ccccc1)Nc1ccc(S(=O)(=O)NC(=O)c2ccc(N3CCC([C@@H](O)c4ccccc4-c4ccc(Cl)cc4)CC3)cc2)cc1S(=O)(=O)C(F)(F)F [AZD4320] + Cn1cnc2c(F)c(Nc3ccc(Br)cc3Cl)c(C(=O)NOCCO)cc21 [Selumetinib] (first compound max 1 µM, 7x7, partner max 3 µM)
- Bliss excess [1]: 0.22
- Bliss excess [2]: 0.0665
- Bliss excess [3]: -0.0088
- Bliss excess [4]: 0.0265
- Bliss excess [5]: 0.0015
- Bliss excess [6]: 0.0328
- Bliss excess [7]: -0.0329
- Bliss excess [8]: -0.006
- Bliss excess [9]: 0.0178
- Bliss excess [10]: 0.0195
- Bliss excess [11]: -0.0301
- Bliss excess [12]: 0.0033
- Bliss excess [13]: -0.0245
- Bliss excess [14]: -0.0306
- Bliss excess [15]: 0.0974
- Bliss excess [16]: 0.0023
- Bliss excess [17]: 0.113
- Bliss excess [18]: -0.0462
- Bliss excess [19]: 0.0025
- Bliss excess [20]: -0.0068

Compound: Cc1cc2ncnn2cc1Nc1ncc2c(n1)n(C1CCOCC1)c(=O)n2C [AZD7648] + CCN(CCO)CCCOc1ccc2c(Nc3cc(CC(=O)Nc4cccc(F)c4)[nH]n3)ncnc2c1 [AZD2811] (first compound max 10 µM, 7x7, partner max 1 µM)
- Bliss excess [1]: 0.0219
- Bliss excess [2]: -0.0304
- Bliss excess [3]: -0.0671
- Bliss excess [4]: 0.017
- Bliss excess [5]: -0.0368
- Bliss excess [6]: 0.0258
- Bliss excess [7]: 0.0211
- Bliss excess [8]: -0.0041
- Bliss excess [9]: 0
- Bliss excess [10]: -0.0126
- Bliss excess [11]: -0.0442
- Bliss excess [12]: -0.0603
- Bliss excess [13]: 0.0296
- Bliss excess [14]: -0.0205
- Bliss excess [15]: 0.0473
- Bliss excess [16]: -0.0267
- Bliss excess [17]: 0.0796
- Bliss excess [18]: 0.11
- Bliss excess [19]: 0.0096
- Bliss excess [20]: -0.0884

Compound: CS(=O)(=O)CCNCc1ccc(-c2ccc3ncnc(Nc4ccc(OCc5cccc(F)c5)c(Cl)c4)c3c2)o1 [Lapatinib] + C[C@@H](Oc1cc(-c2cnn(C3CCNCC3)c2)cnc1N)c1c(Cl)ccc(F)c1Cl [Crizotinib] (first compound max 10 µM, 7x7, partner max 10 µM)
- Bliss excess [1]: -0.0596
- Bliss excess [2]: -0.0937
- Bliss excess [3]: -0.0418
- Bliss excess [4]: -0.0259
- Bliss excess [5]: -0.11
- Bliss excess [6]: -0.0264
- Bliss excess [7]: -0.0338
- Bliss excess [8]: 0.0324
- Bliss excess [9]: -0.0398
- Bliss excess [10]: -0.0217
- Bliss excess [11]: -0.0582
- Bliss excess [12]: -0.0338
- Bliss excess [13]: -0.0303
- Bliss excess [14]: -0.0413
- Bliss excess [15]: -0.037
- Bliss excess [16]: -0.0917
- Bliss excess [17]: 0.0155
- Bliss excess [18]: -0.0469
- Bliss excess [19]: 0.0198
- Bliss excess [20]: -0.0964
